According to ChEMBL document CHEMBL1201862, “PubChem BioAssay data set” (2004):
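48-hour exposure; five concentrations; linearly interpolated endpoints. GI50 = concentration required for 50% inhibition of growth.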 Active and inactive are the calls of the source. Cut-off read from the data, not from the text of the source: active = GI50 up to about 1.1 µM and inactive = higher.

Columns and labels:
Experiment in all cases: growth of human tumour cells (NCI), 48 h
[1] = system: DLD-1
[2] = system: LXFL 529
[3] = system: DMS-273
[4] = system: SNB-78
[5] = system: M19-MEL
[6] = system: RXF 631
[7] = system: MCF7
[8] = system: MDA-MB-231

Row | Structure (SMILES) | GI50 [1] | GI50 [2] | GI50 [3] | GI50 [4] | GI50 [5] | GI50 [6] | GI50 [7] | GI50 [8]
1 | COc1ccc(CC2NCCc3cc(OC)c(OC)cc32)cc1 (configuration not stated) | > 100 µM (inactive) | > 100 µM (inactive) | > 100 µM (inactive) | > 100 µM (inactive) | > 100 µM (inactive) | > 100 µM (inactive) |  | 
2 | CC(C)(C)OC(=O)N[C@H]1CC2(C=C(Cl)C(=O)C(Cl)=C2)OC1=O | 3.66 µM (inactive) | 11.4 µM (inactive) | 18.2 µM (inactive) | 19.6 µM (inactive) | 17.1 µM (inactive) | 16.6 µM (inactive) | 6.79 µM (inactive) | 17.1 µM (inactive)
3 | C[Si](C)(C)/C(Br)=C\CCN1C(=O)CCC1=O | > 100 µM (inactive) | > 100 µM (inactive) | > 100 µM (inactive) | > 100 µM (inactive) | > 100 µM (inactive) | > 100 µM (inactive) |  | 
4 | CCCCCCCCCCCCCC(=O)O[C@H]1CC[C@H](NC(=O)[C@H](OC)[C@H](O)[C@@H](O)[C@H](O)/C=C/C(C)C)C(=O)N(C)C1 [BENGAMIDE B] | 0.00705 µM (active) | 0.0114 µM (active) | < 0.0015 µM (active) | 0.173 µM (active) | 0.00611 µM (active) | < 0.0015 µM (active) |  | 
5 | O=C(O)/C=C/c1ccc(O)c(O)c1 [CAFFEIC ACID] | > 100 µM (inactive) | > 100 µM (inactive) | > 100 µM (inactive) | > 100 µM (inactive) | > 100 µM (inactive) | > 100 µM (inactive) |  | 
